Test results reported in publication PMC12903969, “Discovery of a Novel and Potent Kir4.1 Inhibitor as a Safe and Rapid‐Onset Antidepressant Agent in Mice” (Advanced Science, 2025).
Values joined by “and” are separate entries in the source; they are usually repeats but may differ in a detail not shown here. Identical values can stand only once. Like-named read-outs stand apart in the source and are kept apart here.

Assays:
Kir1.1 = molecular target: T1, Kir1.1 (Homo sapiens, UniProt P48048); assay: Whole-cell patch clamp, Kir1.1; assay type: cell-based; conditions: mean ± SEM
T1 construct: host or cells: CHO-K1
T1 sequence (P48048 whole entry): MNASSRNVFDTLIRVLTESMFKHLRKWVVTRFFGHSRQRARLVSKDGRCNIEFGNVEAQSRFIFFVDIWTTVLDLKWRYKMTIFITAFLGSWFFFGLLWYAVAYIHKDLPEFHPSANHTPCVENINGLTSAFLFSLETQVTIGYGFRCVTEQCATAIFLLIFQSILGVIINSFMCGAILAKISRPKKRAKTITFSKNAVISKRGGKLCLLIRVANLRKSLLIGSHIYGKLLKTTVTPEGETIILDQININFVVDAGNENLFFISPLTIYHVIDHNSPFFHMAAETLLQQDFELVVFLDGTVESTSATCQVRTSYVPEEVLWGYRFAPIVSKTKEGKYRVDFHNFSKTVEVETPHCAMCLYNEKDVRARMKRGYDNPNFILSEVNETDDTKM
Protocol: (§1) Plasmids encoding WT human potassium channels Kir1.1, Kir2.1, Kir2.2, Kir4.1, and Kir4.2 were obtained from the Beijing Genomics Institute. All point mutations were constructed using the QuickChange II Site‐Directed Mutagenesis Kit (Stratagene) and subsequently verified by sequencing.
CHO‐K1 cells were maintained in DMEM/F12 growth medium containing 10% fetal bovine serum. Plasmids encoding the target genes (3600 ng) and enhanced green fluorescent protein (400 ng) were cotransfected into cells using Lipofectamine 2000 (Invitrogen) in accordance with the manufacturer's instructions. Cells were seeded onto poly‐d‐lysine (PDL)‐coated glass coverslips 1 h prior to electrophysiological recordings. […]
Whole‐cell patch‐clamp recordings were obtained either in transiently transfected CHO‐K1 cells or in primary cultured astrocytes at room temperature using standard patch‐clamp techniques with an Axopatch‐700B amplifier (Axon Instruments). […] Macroscopic currents generated by expressed potassium channels were recorded under the voltage‐clamp conditions with an internal pipette solution composed of (in mM): 140 KCl, 5 NaCl, 1 CaCl2, 1 MgCl2, 10 HEPES, and 10 EGTA, pH 7.2 adjusted with KOH. […] Astrocytic resting membrane potentials were recorded under current‐clamp conditions (I = 0 pA) using standard internal and external solutions, determined immediately after achieving whole‐cell mode.

Kir4.2 = molecular target: T2, Kir4.2 (Homo sapiens, UniProt Q99712); assay: Whole-cell patch clamp, Kir4.2; assay type: cell-based
T2 construct: host or cells: CHO-K1
T2 sequence (Q99712 1-375): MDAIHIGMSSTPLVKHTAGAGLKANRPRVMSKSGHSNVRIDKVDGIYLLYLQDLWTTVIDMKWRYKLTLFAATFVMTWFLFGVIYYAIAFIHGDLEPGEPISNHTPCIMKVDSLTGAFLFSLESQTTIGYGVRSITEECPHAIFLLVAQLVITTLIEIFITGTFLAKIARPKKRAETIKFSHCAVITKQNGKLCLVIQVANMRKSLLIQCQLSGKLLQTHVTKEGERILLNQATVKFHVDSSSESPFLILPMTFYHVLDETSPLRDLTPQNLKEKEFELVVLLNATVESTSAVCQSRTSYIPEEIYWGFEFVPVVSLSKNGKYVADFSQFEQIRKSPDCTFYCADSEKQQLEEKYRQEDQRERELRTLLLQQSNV
Protocol: as §1
(§2) CHO‐K1 cells were maintained in DMEM/F12 growth medium containing 10% fetal bovine serum. Plasmids encoding the target genes (3600 ng) and enhanced green fluorescent protein (400 ng) were cotransfected into cells using Lipofectamine 2000 (Invitrogen) in accordance with the manufacturer's instructions. Cells were seeded onto poly‐d‐lysine (PDL)‐coated glass coverslips 1 h prior to electrophysiological recordings. All cells were cultured under standard conditions of 5% CO2 at 37 °C.
(§3) Whole‐cell patch‐clamp recordings were obtained either in transiently transfected CHO‐K1 cells or in primary cultured astrocytes at room temperature using standard patch‐clamp techniques with an Axopatch‐700B amplifier (Axon Instruments). The signals were filtered at 2 kHz and sampled at 20 kHz using the Digidata 1440A interface (Axon Instruments). The resistance of borosilicate glass pipettes was typically 2–4 MΩ when filled with the internal solution. Drug application was facilitated using a BPS perfusion system (ALA Scientific Instruments). Macroscopic currents generated by expressed potassium channels were recorded under the voltage‐clamp conditions with an internal pipette solution composed of (in mM): 140 KCl, 5 NaCl, 1 CaCl2, 1 MgCl2, 10 HEPES, and 10 EGTA, pH 7.2 adjusted with KOH. The external solution contained (in mM): 140 NaCl, 5 KCl, 2 CaCl2, 1 MgCl2, 10 glucose, and 10 HEPES, pH 7.4 adjusted with NaOH. Currents were elicited with a hyperpolarized voltage at −120 mV from the holding potential of −80 mV, followed by a ramp voltage depolarizing to +50 mV. Astrocytic resting membrane potentials were recorded under current‐clamp conditions (I = 0 pA) using standard internal and external solutions, determined immediately after achieving whole‐cell mode.

Kir4.1 I159A = molecular target: T3, Kir4.1 I159A (Homo sapiens, UniProt P78508, I159A); assay: Whole-cell patch clamp, Kir4.1 point mutant I159A; assay type: cell-based
T3 construct: expressed in transfected cells; host or cells: CHO-K1
T3 sequence (P78508 1-379 I159A): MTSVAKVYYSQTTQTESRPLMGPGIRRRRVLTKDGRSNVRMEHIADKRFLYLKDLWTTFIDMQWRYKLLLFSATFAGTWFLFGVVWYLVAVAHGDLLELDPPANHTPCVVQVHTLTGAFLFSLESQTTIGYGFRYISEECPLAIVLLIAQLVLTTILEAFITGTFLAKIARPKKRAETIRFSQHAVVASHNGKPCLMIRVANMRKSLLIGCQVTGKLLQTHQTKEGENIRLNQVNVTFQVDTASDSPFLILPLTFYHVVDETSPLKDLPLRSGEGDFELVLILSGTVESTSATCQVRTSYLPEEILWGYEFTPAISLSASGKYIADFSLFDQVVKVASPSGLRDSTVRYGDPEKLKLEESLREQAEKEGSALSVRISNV
Protocol: as §1, §2, §3

5-HT2A receptor = molecular target: T4, 5-HT2A receptor (Homo sapiens, UniProt P28223); assay: 5-HT2A functional assay (Fluo-4 calcium, FDSS); assay type: cell-based
T4 construct: expressed in transfected cells
T4 sequence (P28223 whole entry): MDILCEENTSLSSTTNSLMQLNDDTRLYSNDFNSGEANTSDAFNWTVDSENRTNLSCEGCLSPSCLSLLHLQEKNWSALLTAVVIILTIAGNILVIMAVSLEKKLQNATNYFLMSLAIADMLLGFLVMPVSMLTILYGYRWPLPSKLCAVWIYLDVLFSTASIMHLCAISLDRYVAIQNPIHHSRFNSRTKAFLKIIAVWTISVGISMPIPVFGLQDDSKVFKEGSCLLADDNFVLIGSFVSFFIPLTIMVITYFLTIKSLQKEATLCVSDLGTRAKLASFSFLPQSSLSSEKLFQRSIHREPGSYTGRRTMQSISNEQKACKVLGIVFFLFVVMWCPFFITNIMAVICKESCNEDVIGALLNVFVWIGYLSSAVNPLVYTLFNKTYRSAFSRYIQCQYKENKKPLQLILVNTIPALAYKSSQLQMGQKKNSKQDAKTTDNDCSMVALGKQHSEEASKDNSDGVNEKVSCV
Protocol: (§4) Cells with inducible expression of target receptor were cultured in 175‐cm^2 flasks until ≈80% confluence, washed once with phosphate‐buffered saline (PBS), and dissociated using 0.25% trypsin–EDTA. After neutralization with culture medium and centrifugation (800 rpm, 3 min), the cells were resuspended, counted, and seeded onto poly‐D‐lysine‐coated 96‐well black plates at a density of 4 × 10^4 cells/well. Expression of the target receptor was induced with 1 µg mL^−1 doxycycline. After 30 min at room temperature, the plates were incubated at 37 °C, 5% CO2 for 18−24 h until reaching ≈90% confluence. The medium was replaced with Ca^2⁺‐free extracellular buffer, washed once, and incubated with Fluo‐4 AM for 60 min at 37 °C in the dark. After washing twice with extracellular buffer, extracellular buffer was added (80 µL/well), and the cells were incubated for an additional 20 min at room temperature before fluorescence recording. Real‐time fluorescence changes were recorded using an FDSS/µCell system at 480 nm excitation and 540 nm emission with a sampling rate of 1 Hz. After a 10‐s baseline, the test compounds were added (20 µL/well), and fluorescence was recorded for 180 s. Subsequently, […] was added (20 µL/well), and the signals were monitored for a total of 360 s.
(§5) The agonistic effect (%) of compounds was calculated as follows: (1) Agonist%=Rcompound−Rcontrol/Rcontrol×100% where R control is the maximal fluorescence ratio after the addition of 0.5% DMSO and R compoundis the ratio obtained after compound treatment. Fluorescence response curves and EC50 values were used to evaluate the agonistic potency. The extracellular (Ca^2+‐free) buffer contained (in mM): 140 NaCl, 5 KCl, 1 MgCl2, 10 glucose, 10 HEPES, 2 probenecid; pH adjusted to 7.4 with NaOH.

5-HT2B receptor = molecular target: T5, 5-HT2B receptor (Homo sapiens, UniProt P41595); assay: 5-HT2B functional assay (Fluo-4 calcium, FDSS); assay type: cell-based
T5 construct: expressed in transfected cells
T5 sequence (P41595 whole entry): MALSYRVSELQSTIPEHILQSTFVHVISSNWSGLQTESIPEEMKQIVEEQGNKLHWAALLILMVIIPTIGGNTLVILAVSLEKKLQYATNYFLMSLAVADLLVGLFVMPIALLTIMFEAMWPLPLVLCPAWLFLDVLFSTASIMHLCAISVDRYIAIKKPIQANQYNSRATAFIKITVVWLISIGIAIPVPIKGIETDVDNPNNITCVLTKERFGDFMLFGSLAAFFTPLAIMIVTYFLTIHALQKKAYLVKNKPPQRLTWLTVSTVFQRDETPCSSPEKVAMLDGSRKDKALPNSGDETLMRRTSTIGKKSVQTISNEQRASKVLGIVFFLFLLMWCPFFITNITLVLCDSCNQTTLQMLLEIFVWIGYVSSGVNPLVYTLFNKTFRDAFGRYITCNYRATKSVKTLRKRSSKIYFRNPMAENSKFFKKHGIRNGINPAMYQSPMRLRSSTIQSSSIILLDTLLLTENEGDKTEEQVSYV
Protocol: as §4, §5

mice = assay: Treadmill test (TT); assay type: in vivo; conditions: chronic 10 mg kg−1 per day
Protocol: This test was designed to quantify locomotor endurance in rodents. The time (300 s) and speed (maximum: 30 rpm) parameters for the treadmill were set using a digital panel and the mice were placed in lanes. Gentle electrical probes (0.3 mA) served as motivational stimuli. Total distance traveled was automatically recorded using rotary encoder integration.

## c1ccc2c(c1)oc1ccc(Nc3ccnc(NCCCN4CCOCC4)n3)cc12 [JX3212, N^4-(dibenzo[b,d]furan-2-yl)-N^2-(3-morpholinopropyl)pyrimidine-2,4-diamine]
Kir1.1
  inhibition at 3 µM: 17.8 ± 8.26%
Kir4.2; 3 µM, mean ± SEM
  Kir4.2 blockade: 86.57 ± 10.51%
Kir4.2; JX3212 3 µM (Fig 2A)
  Kir isoforms: Kir4.2 inhibition, single recordings: 93.8526 and 74.5275
Kir4.2; JX3212 3 µM (Fig 2A), read-out: Kir isoforms: Kir4.2 inhibition, single recordings
  inhibition at 3 µM: 91.3%
Kir4.1 I159A; 3 µM, mean ± SEM, read-out: current inhibition, Kir4.1 I159A
  inhibition at 3 µM: 43.9 ± 6.15%
Kir4.1 I159A; JX3212 3 µM (Fig 2D)
  Mutation: I159A inhibition, single recordings: 52.8569 and 40.7357 and 46.4245 and 36.569
Kir4.1 I159A; JX3212 3 µM (Fig 2D), read-out: Mutation: I159A inhibition, single recordings
  inhibition at 3 µM: 42.9%
5-HT2A receptor; agonistic effect
  EC50: > 60 µM
5-HT2A receptor; read-out: 5-HT2A agonistic effect, replicates, concentration 60 (presumably µM)
  activation at 60 µM: 61.8%
5-HT2A receptor; read-out: 5-HT2A max activation%
  Emax: 58.6%
5-HT2B receptor; agonistic effect
  EC50: > 60 µM
5-HT2B receptor; read-out: 5-HT2B agonistic effect, replicates, concentration 60 (presumably µM)
  activation at 60 µM: 55.2%
5-HT2B receptor; read-out: 5-HT2B max activation%
  Emax: 62.4%
mice
  treadmill running distance vs vehicle (in words): showed no significant effects
